Earlier results on two molecules are cited in patent publication US20150299754A1, “STREPTOMYCES MICROFLAVUS STRAINS AND METHODS OF THEIR USE TO CONTROL PLANT DISEASES AND PESTS” (Bayer CropScience LP, priority 2014, published 2015).

The subject of one data set is powdery mildew. Particulars: according to GB 1 507 193.
Data set [1] has as its system parasites on animals, such as pin worm. Particulars: according to U.S. Pat. No. 3,849,398.
Data set [2] relates to gram-positive, gram-negative bacteria and tubercule bacillus. Particulars: according to U.S. Pat. No. 3,849,398.

In the case of `NC(N)=NCC(O)CC(O)(C(=O)O)[C@H]1O[C@@H](n2cc(CO)c(N)nc2=O)C=C[C@@H]1NC(=O)[C@@H](N)CO` (stereo partly drawn) [B-98891], the “antifungal activity against powdery mildew” value in the data set with powdery mildew is recorded as “antifungal activity”.

As for `CNCC(=O)NC(CO)C(=O)NC1C(C(N)=O)OC(n2ccc(N)nc2=O)C(O)C1O` (stereo not drawn) [gougerotin], the parasiticidal action result in data set [1] is reported as “parasiticidal action”. Also, in data set [2], the antibacterial activity entry is recorded as “weak antibacterial activity”.
